According to US9260439B2, “Dihydropyrrolopyrimidine derivatives” (PFIZER INC., priority 2014, dated 2016):

Molecular target: full-length PI3Kα (full-length p110α/p85α) (Homo sapiens (Human), UniProt P42336)
Experiment: PI3KA_FL fluorescence polarization kinase assay (Ki)
Assay type: biochemical
Details: 41 μM ATP
Description: Enzyme Production for Biochemical Assays: 1) PI3Kα Complex (Full Length p110α and p85α)(“PI3KA_FL”)
Genes encoding for full length p110α and p85α subunits of PI3Kα complex were subcloned from existing constructs into pFASTBAC Dual vector (Life Technologies, Carlsbad, Calif.) using standard cloning procedures. Gene encoding p110α subunit was subcloned into polyhedrine promoter while gene encoding p85α subunit was subcloned into p10 promoter. Additionally, sequence encoding for histidine tag and Tobacco Etch Virus (“TEV”) cleavage site preceded p110α ORF (Open Reading Frame). Recombinant baculovirus was generated using Bac-to-Bac protocol (Life Technologies, Carlsbad, Calif.) and large scale expression was conducted in Sf21 (Life Technologies, Carlsbad, Calif.) cells at a multiplicity of infection (“MOI”)=1 for 72 hours. Cells were lyzed in 50 mM Tris pH 8.0, 250 mM NaCl, 5% glycerol, 0.25 mM TCEP, and 20 mM imidazole. The PI3Kα complex was purified from clarified supernatant using Immobilized Metalo Affinity Chromatography (“IMAC”). The protein was eluted from the column using 50 mM Tris pH 8.0, 200 mM NaCl, 5% glycerol, 0.25 mM TCEP, and 200 mM imidazole, and further desalted into 50 mM Tris pH 8.0, 20 mM NaCl, and 0.25 mM TCEP prior to loading on MonoQ sepharose (GE Healthcare, Piscataway, N.J.). PI3Kα complex was eluted from MonoQ sepharose over 20 column volumes using 0-30% gradient of buffer B (50 mM Tris pH 8.0, 1 M NaCl, and 0.25 mM TCEP). The peak fractions were pulled together and loaded on Superdex 200 26/60 SEC column equilibrated in 50 mM Tris pH 8.0, 200 mM NaCl, and 0.5 mM TCEP. […] Purity and integrity of the complex was confirmed using LCMS, analytical SEC and SDS-PAGE (sodium dodecyl sulfate polyacrylamide gel electrophoresis) analysis.
The biochemical assays of kinase activity of full-length PI3Kα (full-length p110α/p85a) or truncated PI3Kα (p110α/iSH2 p85a) were conducted using a fluorescence polarization format similar to the procedure of Yuan J., et al., (2011) “PF-04691502, a Potent and Selective Oral Inhibitor of PI3K and mTOR Kinases with Antitumor Activity”, Mol Cancer Ther. 10, 2189-2199. The enzymatic reactions were conducted in 50 μL volumes in 96-well plates. The reactions contained human recombinant PI3Kα (2 nM full-length p110α/p85α or 0.5 nM p110α/iSH2 p85) and 30 μM phosphatidylinositol 4,5-bisphosphate (“PIP2”) (Cayman Chemical Company, Ann Arbor, Mich.) and were sonicated for 1 minute prior to adding PI3Kα enzyme (PI3KA_Act or PI3KA_FL), DMSO or test compound (12-point 3-fold serial dilution, 3 μM top dose, 2° A) DMSO final concentration), 5 mM MgCl2, 50 mM HEPES pH 7.4, 150 mM NaCl, 1 mM DTT ((2S,3S)-1,4-bis(sulfanyl)butane-2,3-diol), and 0.05% 3-[(3-cholamidopropyl)dimethylammonio]-1-propanesulfonate (“CHAPS”). […] The reactions were incubated for 30 min at room temperature, stopped with EDTA pH 8 (10 mM final concentration). In a detection plate, 15 μL of detector/probe mixture, containing 480 nM GST-Grp1 PH domain protein (University of Dundee, Dundee, UK) and 12 nM carboxytetramethylrhodamine (“TAMRA”)-tagged fluorescent phosphatidylinositol (3,4,5)-triphosphate (“PIP3”) (Echelon Biosciences, Inc., Salt Lake City, Utah) in assay buffer, was mixed with 15 μL of kinase reaction mixture. The plate was shaken for 30 minutes and fluorescence polarization values were measured on an LJL Analyst HT plate reader (Molecular Devices, Sunnyvale, Calif.). […] The inhibition constants (Ki) were calculated by fitting fluorescence polarization values, corresponding to initial reaction rates, to the Morrison equation (Morrison, J. F. (1969) Kinetics of the reversible inhibition of enzyme catalysed reactions by tight-binding inhibitors. Biochim. Biophys. Acta 185, 269-286) for tight-binding competitive inhibitors using non-linear regression method (GraphPad Prism, GraphPad Software, San Diego, Calif.).

Chain of full-length PI3Kα (full-length p110α/p85α) (P42336 whole entry): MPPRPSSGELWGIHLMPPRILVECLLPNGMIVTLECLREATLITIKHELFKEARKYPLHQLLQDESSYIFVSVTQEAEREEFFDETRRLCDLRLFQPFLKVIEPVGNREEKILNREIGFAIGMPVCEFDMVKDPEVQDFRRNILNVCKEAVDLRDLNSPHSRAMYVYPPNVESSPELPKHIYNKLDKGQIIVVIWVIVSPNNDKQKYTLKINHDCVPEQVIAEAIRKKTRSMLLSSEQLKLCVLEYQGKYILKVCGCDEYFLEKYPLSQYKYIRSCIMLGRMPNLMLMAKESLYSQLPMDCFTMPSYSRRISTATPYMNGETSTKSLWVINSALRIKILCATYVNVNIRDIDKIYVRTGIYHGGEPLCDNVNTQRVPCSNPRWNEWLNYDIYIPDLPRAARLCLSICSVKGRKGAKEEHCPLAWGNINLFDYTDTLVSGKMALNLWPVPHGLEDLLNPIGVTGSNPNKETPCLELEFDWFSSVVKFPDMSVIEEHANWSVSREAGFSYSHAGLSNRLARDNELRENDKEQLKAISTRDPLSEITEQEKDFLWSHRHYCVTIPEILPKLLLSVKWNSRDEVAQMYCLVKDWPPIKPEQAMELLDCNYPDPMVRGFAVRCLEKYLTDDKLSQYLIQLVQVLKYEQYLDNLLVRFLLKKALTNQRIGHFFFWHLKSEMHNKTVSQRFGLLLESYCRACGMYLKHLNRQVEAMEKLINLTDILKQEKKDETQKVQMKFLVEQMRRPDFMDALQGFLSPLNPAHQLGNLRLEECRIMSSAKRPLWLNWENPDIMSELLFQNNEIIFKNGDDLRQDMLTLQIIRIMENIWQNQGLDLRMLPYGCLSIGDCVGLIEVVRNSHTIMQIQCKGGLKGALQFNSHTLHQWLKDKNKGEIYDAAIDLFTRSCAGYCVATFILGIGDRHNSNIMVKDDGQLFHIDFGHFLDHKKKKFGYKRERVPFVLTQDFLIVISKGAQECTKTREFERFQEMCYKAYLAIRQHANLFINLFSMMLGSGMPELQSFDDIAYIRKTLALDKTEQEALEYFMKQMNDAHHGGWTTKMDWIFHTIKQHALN
Chain of full-length PI3Kα (full-length p110α/p85α) (P27986 whole entry partner): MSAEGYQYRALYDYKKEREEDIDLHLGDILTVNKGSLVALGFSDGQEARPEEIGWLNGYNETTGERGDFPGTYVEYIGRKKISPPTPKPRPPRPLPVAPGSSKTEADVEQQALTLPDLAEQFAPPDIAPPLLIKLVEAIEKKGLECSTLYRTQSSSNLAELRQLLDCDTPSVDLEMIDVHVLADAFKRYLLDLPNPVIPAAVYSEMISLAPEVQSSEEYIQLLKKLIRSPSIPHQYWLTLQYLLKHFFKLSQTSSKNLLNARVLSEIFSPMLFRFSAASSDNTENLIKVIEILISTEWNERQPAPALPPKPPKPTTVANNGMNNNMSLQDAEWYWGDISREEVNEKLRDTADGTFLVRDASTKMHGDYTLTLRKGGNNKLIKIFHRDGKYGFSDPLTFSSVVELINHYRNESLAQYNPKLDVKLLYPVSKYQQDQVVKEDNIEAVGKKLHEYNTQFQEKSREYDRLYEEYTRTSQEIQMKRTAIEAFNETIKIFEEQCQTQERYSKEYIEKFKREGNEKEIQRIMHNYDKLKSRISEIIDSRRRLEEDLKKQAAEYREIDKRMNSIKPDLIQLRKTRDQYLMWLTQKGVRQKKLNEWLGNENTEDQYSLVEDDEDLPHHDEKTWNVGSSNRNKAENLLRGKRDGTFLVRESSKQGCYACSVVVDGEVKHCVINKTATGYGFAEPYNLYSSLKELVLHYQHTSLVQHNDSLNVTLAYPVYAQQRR

In order of falling “PI3KA_FL Ki” value:
1. CC(=O)N1C[C@H](C(F)F)[C@H](N2CCc3c(-c4cnc(N)nc4)nc(N4CCOCC4)nc32)C1 [Example 56]  35.745 nM
2. CC(=O)N1C[C@@H](C(F)F)[C@@H](N2CCc3c(-c4cnc(N)nc4)nc(N4CCOCC4)nc32)C1 [Example 60]  27.752 nM
3. CO[C@H]1CC[C@H](N2CCc3c(-c4cnc(N)nc4)nc(N4CCOCC4)nc32)CC1 [Example 36]  19.031 nM
4. CC(=O)N[C@@H]1CC[C@H]1N1CCc2c(-c3cnc(N)nc3)nc(N3CCOCC3)nc21 [Example 50]  18.596 nM
5. Nc1ncc(-c2nc(N3CCOCC3)nc3c2CCN3[C@H]2CCNC(=O)C2)cn1 [Example 78]  14.681 nM
6. CC(=O)N[C@H]1C[C@@H](N2CCc3c(-c4cnc(N)nc4)nc(N4CCOCC4)nc32)C1 [Example 23]  9.696 nM
7. CC(=O)N1C[C@@H](C)[C@@H](N2CCc3c(-c4cnc(N)nc4)nc(N4CCOCC4)nc32)C1 [Example 68]  9.393 nM
8. CC(=O)N1C[C@H](C(F)F)[C@@H](N2CCc3c(-c4cnc(N)nc4)nc(N4CCOCC4)nc32)C1 [Example 71]  8.899 nM
9. CC(=O)N1CCC[C@H](N2CCc3c(-c4cnc(N)nc4)nc(N4CCOCC4)nc32)C1 [Example 54]  8.634 nM
10. Nc1ncc(-c2nc(N3CCOCC3)nc3c2CCN3[C@@H]2CCNC(=O)C2)cn1 [Example 77]  8.025 nM
11. CC(=O)N[C@H]1C(C)(C)[C@@H](N2CCc3c(-c4cnc(N)nc4)nc(N4CCOCC4)nc32)C1(C)C [Example 42]  7.677 nM
12. CC(=O)N1C[C@@H](N2CCc3c(-c4cnc(N)nc4)nc(N4CCOCC4)nc32)[C@H](C(F)F)C1 [Example 63]  6.612 nM
13. CC(=O)N[C@H]1C[C@H](N2CCc3c(-c4cnc(N)nc4)nc(N4CCOCC4)nc32)C1 [Example 29]  5.828 nM
14. CC(=O)N(C)[C@H]1C[C@H](N2CCc3c(-c4cnc(N)nc4)nc(N4CCOCC4)nc32)C1 [Example 21]  5.393 nM
15. CC(=O)N1CC(N2CCc3c(-c4cnc(N)nc4)nc(N4CCOCC4)nc32)C1 [Example 33]  5.195 nM
16. CC(=O)N[C@H]1CC[C@@H]1N1CCc2c(-c3cnc(N)nc3)nc(N3CCOCC3)nc21 [Example 70]  4.601 nM
17. CC(=O)N1CCC[C@@H](N2CCc3c(-c4cnc(N)nc4)nc(N4CCOCC4)nc32)C1 [Example 55]  3.904 nM
18. NC(=O)N1CC(N2CCc3c(-c4cnc(N)nc4)nc(N4CCOCC4)nc32)C1 [Example 86]  3.673 nM
19. Nc1ncc(-c2nc(N3CCOCC3)nc3c2CCN3[C@@H]2CCCOC2)cn1 [Example 48]  3.543 nM
20. Nc1ncc(-c2nc(N3CCOCC3)nc3c2CCN3[C@@H]2CCN(S(N)(=O)=O)C2)cn1 [Example 84]  3.507 nM
21. Nc1ncc(-c2nc(N3CCOCC3)nc3c2CCN3[C@H]2CCCOC2)cn1 [Example 47]  3.320 nM
22. CC(=O)N1C[C@@H](N2CCc3c(-c4cnc(N)nc4)nc(N4CCOCC4)nc32)[C@@H](C)C1 [Example 52]  2.799 nM
23. C[C@]1(O)C[C@@H](N2CCc3c(-c4cnc(N)nc4)nc(N4CCOCC4)nc32)C1 [Example 44]  1.965 nM
24. C[C@@H](O)C(=O)N1CC[C@H](N2CCc3c(-c4cnc(N)nc4)nc(N4CCOCC4)nc32)C1 [Example 41]  1.376 nM
25. Nc1ncc(-c2nc(N3CCOCC3)nc3c2CCN3[C@H]2CCN(C=O)C2)cn1 [Example 43]  1.310 nM
26. CS(=O)(=O)N1CC[C@@H](N2CCc3c(-c4cnc(N)nc4)nc(N4CCOCC4)nc32)C1 [Example 80]  1.247 nM
27. C[C@H](O)C(=O)N1CC[C@H](N2CCc3c(-c4cnc(N)nc4)nc(N4CCOCC4)nc32)C1 [Example 30]  1.188 nM
28. CNC(=O)N1CC[C@H](N2CCc3c(-c4cnc(N)nc4)nc(N4CCOCC4)nc32)C1 [Example 27]  1.025 nM
29. Nc1ncc(-c2nc(N3CCOCC3)nc3c2CCN3[C@H]2C[C@H](O)C2)cn1 [Example 24]  0.961 nM
30. Nc1ncc(-c2nc(N3CCOCC3)nc3c2CCN3C2CN(C=O)C2)cn1 [Example 62]  0.888 nM
31. CC(C)[C@H](O)C(=O)N1CC[C@H](N2CCc3c(-c4cnc(N)nc4)nc(N4CCOCC4)nc32)C1 [Example 32]  0.841 nM
32. NC(=O)N1CC[C@H](N2CCc3c(-c4cnc(N)nc4)nc(N4CCOCC4)nc32)C1 [Example 58]  0.794 nM
33. CNS(=O)(=O)N1CC[C@@H](N2CCc3c(-c4cnc(N)nc4)nc(N4CCOCC4)nc32)C1 [Example 81]  0.788 nM
34. Nc1ncc(-c2nc(N3CCOCC3)nc3c2CCN3[C@H]2C[C@H](C(N)=O)C2)cn1 [Example 53]  0.774 nM
35. C[C@H]1COCCN1c1nc(-c2cnc(N)nc2)c2c(n1)N([C@@H]1CCN(S(C)(=O)=O)C1)CC2 [Example 83]  0.761 nM
36. C[C@]1(O)C[C@H](N2CCc3c(-c4cnc(N)nc4)nc(N4CCOCC4)nc32)C1 [Example 39]  0.738 nM
37. CN([C@H]1C[C@@H](N2CCc3c(-c4cnc(N)nc4)nc(N4CCOCC4)nc32)C1)S(C)(=O)=O [Example 49]  0.722 nM
38. COC(=O)N1CC[C@H](N2CCc3c(-c4cnc(N)nc4)nc(N4CCOCC4)nc32)C1 [Example 28]  0.521 nM
39. Nc1ncc(-c2nc(N3CCOCC3)nc3c2CCN3[C@H]2C[C@@H](F)C2)cn1 [Example 64]  0.508 nM
40. C[C@H]1COCCN1c1nc(-c2cnc(N)nc2)c2c(n1)N(C1CC(F)(F)C1)CC2 [Example 87]  0.462 nM
41. Nc1ncc(-c2nc(N3CCOCC3)nc3c2CCN3[C@H]2CCN(S(N)(=O)=O)C2)cn1 [Example 26]  0.423 nM
42. CO[C@H]1C[C@H](N2CCc3c(-c4cnc(N)nc4)nc(N4CCOCC4)nc32)C1 [Example 40]  0.416 nM
43. C[C@H]1COCCN1c1nc(-c2cnc(N)nc2)c2c(n1)N([C@H]1C[C@H](N(C)S(C)(=O)=O)C1)CC2 [Example 90]  0.403 nM

In the case of CN([C@H]1C[C@H](N2CCc3c(-c4cnc(N)nc4)nc(N4CCOCC4)nc32)C1)S(C)(=O)=O [Example 22], the “PI3KA_FL Ki (nM)” value is reported as “≦0.229 nM”.
For Nc1ncc(-c2nc(N3CCOCC3)nc3c2CCN3[C@H]2CCN(C(=O)CO)C2)cn1 [Example 25], the “PI3KA_FL Ki (nM)” value was “≦0.229 nM”.
For CC(C)[C@@H](O)C(=O)N1CC[C@H](N2CCc3c(-c4cnc(N)nc4)nc(N4CCOCC4)nc32)C1 [Example 31], the “PI3KA_FL Ki (nM)” value was “≦0.229 nM”.
With Nc1ncc(-c2nc(N3CCOCC3)nc3c2CCN3[C@H]2C[C@H](F)C2)cn1 [Example 65] the “PI3KA_FL Ki (nM)” value was “≦0.229 nM”.
